Experimental data: ChEMBL document CHEMBL1159290, “Longicin and goniothalamicinone: novel bioactive monotetrahydrofuran acetogenins from Asimina longifolia” (J Nat Prod, 1995)
In brackets after ≈: the same amount, converted by molar mass.

Tests used:
[1] = system: A549; assay: Cytotoxicity against human A549 cells after 7 days by MTT assay; assay type: functional
[2] = system: MCF7; assay: Cytotoxicity against human MCF7 cells after 7 days by MTT assay; assay type: functional; details: MCF7, 168 h, read-out: ED50 (the source's name)
[3] = Toxicity to brine shrimp; assay type: organism-based; details: artemia, in vivo
[4] = system: PC-3; assay: Cytotoxicity against human PC3 cells after 7 days by MTT assay; assay type: functional; details: PC-3, 168 h, read-out: ED50 (the source's name)
[5] = system: MIA PaCa-2; assay: Cytotoxicity against human MIAPaCa2 cells after 7 days by MTT assay; assay type: functional; details: for EC50: Homo sapiens, MIA PaCa-2, 168 h, read-out: ED50 (the source's name)
[6] = system: HT-29; assay: Cytotoxicity against human HT-29 cells after 7 days by MTT assay; assay type: functional; details: for EC50: Homo sapiens, HT-29, 168 h, read-out: ED50 (the source's name)
[7] = system: A498; assay: Cytotoxicity against human A498 cells after 7 days by MTT assay; assay type: functional; details: for EC50: Homo sapiens, A498, 168 h, read-out: ED50 (the source's name)

SMILES	ED50 [1]	EC50 [2] [µg/mL]	LC50 [3] [µg/mL]	EC50 [4] [µg/mL]	ED50 [5]	ED50 [6]	ED50 [7] [×10⁻⁴ ug/ml]	EC50 [5] [µg/mL]	EC50 [7] [µg/mL]	EC50 [6] [µg/mL]	EC50 ([1]; Homo sapiens, A549, 168 h, read-out: ED50 (the source's name)) [µg/mL]
CCCCCCCCCCCCCC[C@H](O)[C@H]1CC[C@H]([C@H](O)CC[C@H](O)CCCCC[C@@H](O)CC2=C[C@H](C)OC2=O)O1 [LONGICIN]	1.77 ×10⁻⁶ ug/ml	> 1	0.11 (≈ 184 nM)	0.00426 (≈ 7.14 nM)	1.25 ×10⁻⁹ ug/ml	2.4 ×10⁻⁵ ug/ml	1.99	–	–	–	–
CCCCCCCCCCCCCC[C@@H](O)[C@H]1CC[C@H]([C@H](O)CC[C@H](O)CCCCC[C@@H]2CC(CC(C)=O)C(=O)O2)O1 (mixture of isomers)	2.06 ×10⁻⁵ ug/ml	0.967	0.14	0.137	–	4.05 ×10⁻⁴ ug/ml	–	0.00133	0.291	–	–
CCCCCCCCCCCCCC[C@H](O)[C@H]1CC[C@H]([C@H](O)CC[C@H](O)CCCCC[C@@H]2CC(CC(C)=O)C(=O)O2)O1 (mixture of isomers)	1.23 ×10⁻⁴ ug/ml	0.186	0.46	0.201	2.37 ×10⁻⁴ ug/ml	–	–	–	0.172	0.235	–
COc1cccc2c1C(=O)c1c(O)c3c(c(O)c1C2=O)C[C@@](O)(C(=O)CO)C[C@@H]3O[C@H]1C[C@H](N)[C@H](O)[C@H](C)O1 [DOXORUBICIN]	–	0.329 (≈ 605 nM)	–	–	–	–	–	0.00195 (≈ 3.59 nM)	0.00197 (≈ 3.62 nM)	0.0116 (≈ 21.3 nM)	0.00341 (≈ 6.27 nM)
